Experimental data reported in the supplement of paper PMC10878532, “Sperm Toolbox—A selection of small molecules to study human spermatozoa” (PLOS ONE, 2024).
Counter-ions that a name gives are not always drawn.

Legend:
HepG2 = HepG2 toxicity (resazurin), effect normalised to DMSO (DMSO = 0); higher = more features changed / larger toxic effect; details: incubation time: 70h incubation
human spermatozoa [1] = assay: total motile sperm, percent change vs DMSO (non-capacitating); higher = more of the measured sperm population than DMSO, for viability, fewer PI-positive (dead) cells than DMSO
human spermatozoa [2] = assay: acrosome-reacted (PNA+) sperm after agonist cocktail, percent change vs DMSO (capacitating); higher = more of the measured sperm population than DMSO, for viability, fewer PI-positive (dead) cells than DMSO; details: incubation time: 3h, capacitating + agonist cocktail 1h
HeLa [3] = assay: Cell Painting percent induction (share of features beyond 2 z-scores vs DMSO); higher = more features changed / larger toxic effect; extreme values may be limits of the assay; details: incubation time: 24h incubation
human spermatozoa [4] = assay: viability fold change, 1 - (PI-positive fraction / DMSO median); higher = more of the measured sperm population than DMSO, for viability, fewer PI-positive (dead) cells than DMSO; details: incubation time: 3h, non-capacitating
human spermatozoa [5] = assay: progressively motile sperm, percent change vs DMSO (capacitating); higher = more of the measured sperm population than DMSO, for viability, fewer PI-positive (dead) cells than DMSO; details: incubation time: 30min incubation
human spermatozoa [6] = assay: progressively motile sperm, percent change vs DMSO (non-capacitating); higher = more of the measured sperm population than DMSO, for viability, fewer PI-positive (dead) cells than DMSO; extreme values may be limits of the assay
human spermatozoa [7] = assay: change in acrosome-reacted (PNA+) sperm vs DMSO, no agonist (capacitating); higher = more of the measured sperm population than DMSO, for viability, fewer PI-positive (dead) cells than DMSO; details: incubation time: 3h
human spermatozoa [8] = assay: hyperactivated motile sperm, percent change vs DMSO (capacitating); higher = more of the measured sperm population than DMSO, for viability, fewer PI-positive (dead) cells than DMSO; details: incubation time: 30min incubation
HeLa [9] = assay: HeLa toxicity: nuclei-count effect normalised to DMSO (DMSO = 0); higher = more features changed / larger toxic effect; details: incubation time: 24h incubation
[10] = incubation time: 10min incubation, 9.99 µM
[11] = incubation time: 10min incubation, 29.9 µM
[12] = incubation time: 3h incubation, 9.99 µM
[13] = incubation time: 3h incubation, 29.9 µM
[14] = incubation time: 6h incubation, 9.99 µM
[15] = incubation time: 6h incubation, 29.9 µM
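Wherever progressively motile sperm, percent change vs DMSO (non-capacitating) is given: pooled live human sperm from at least 3 donors, tracked by automated microscopy in 0.5 s time-lapse movies, compounds at 10 and 30 µM, versus median of 16 DMSO wells per plate.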
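Wherever total motile sperm, percent change vs DMSO (non-capacitating) is given: sperm pooled from at least 3 donors, tracked in 0.5 s time-lapse movies by automated microscopy after 10 min, 3 h or 6 h with compound at 10 or 30 µM.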

| SMILES | HepG2 toxicity (HepG2; 10 µM) [%] | HepG2 toxicity (HepG2; 30 µM) [%] | total motile sperm (human spermatozoa [1]; [10]) [%] | total motile sperm (human spermatozoa [1]; [11]) [%] | total motile sperm (human spermatozoa [1]; [12]) [%] | total motile sperm (human spermatozoa [1]; [13]) [%] | total motile sperm (human spermatozoa [1]; [14]) [%] | total motile sperm (human spermatozoa [1]; [15]) [%] | acrosome-reacted (human spermatozoa [2]; 9.99 µM) [%] | acrosome-reacted (human spermatozoa [2]; 29.9 µM) [%] | Cell Painting percent induction (HeLa [3]; 9.99 µM) [%] | Cell Painting percent induction (HeLa [3]; 29.9 µM) [%] | viability fold change (human spermatozoa [4]; 9.99 µM) | viability fold change (human spermatozoa [4]; 29.9 µM) | progressively motile sperm (human spermatozoa [5]; 9.99 µM) [%] | progressively motile sperm (human spermatozoa [5]; 29.9 µM) [%] | progressively motile sperm (human spermatozoa [6]; [10]) [%] | progressively motile sperm (human spermatozoa [6]; [11]) [%] | progressively motile sperm (human spermatozoa [6]; [12]) [%] | progressively motile sperm (human spermatozoa [6]; [13]) [%] | progressively motile sperm (human spermatozoa [6]; [14]) [%] | progressively motile sperm (human spermatozoa [6]; [15]) [%] | change in acrosome-reacted (human spermatozoa [7]; 9.99 µM) [%] | change in acrosome-reacted (human spermatozoa [7]; 29.9 µM) [%] | hyperactivated motile sperm (human spermatozoa [8]; 9.99 µM) [%] | hyperactivated motile sperm (human spermatozoa [8]; 29.9 µM) [%] | HeLa toxicity: nuclei-count effect normalised (HeLa [9]; 9.99 µM) [%] | HeLa toxicity: nuclei-count effect normalised (HeLa [9]; 29.9 µM) [%] |
| --- | --- | --- | --- | --- | --- | --- | --- | --- | --- | --- | --- | --- | --- | --- | --- | --- | --- | --- | --- | --- | --- | --- | --- | --- | --- | --- | --- | --- |
| Oc1c(Cl)cc(Cl)c(Cl)c1Cc1c(O)c(Cl)cc(Cl)c1Cl [Hexachlorophene] | 56.3 | 74.5 | -1.87 | -5.83 | -1.02 | -8.13 | -1.96 | -7.29 | -9.07 | -13.3 | 0 | 0.18 | -0.213 | 0.344 | -5.64 | -8.81 | -23.5 | -48.4 | -39.7 | -63.9 | -37.2 | -61.3 | 0.634 | 0.899 | -24.4 | -58.1 | 14 | 33.9 |
| CC(C)Cn1cnc2c(N)nc3ccccc3c21 [Imiquimod] | 10.2 | -1.53 | -0.548 | 1.37 | -4.33 | -4.6 | -4.54 | -9.83 | 34.9 | 56.5 | 0.612 | 0 | -0.324 | -0.489 | 7.22 | 11.8 | 24.4 | 32.7 | 49.3 | 51.2 | 58.8 | 51.3 | 1.03 | 1.32 | 65.2 | 131 | 6.28 | 5.01 |
| Nc1nc(Cl)nc2c1ncn2[C@@H]1O[C@H](CO)[C@@H](O)[C@@H]1F [Clofarabine] | 12.2 | 19.6 | -6.85 | -9.16 | -17.7 | -20.8 | -25.1 | -28.8 | 87.1 | 104 | 0.396 | 0.54 | -0.45 | -0.516 | 10.5 | 12.9 | 21.7 | 19.3 | 50.7 | 35.6 | 46.2 | 29.9 | 1.07 | 0.866 | 206 | 262 | 47.6 | 47.5 |
| O=C(c1cccs1)c1no[n+]([O-])c1C(=O)c1cccs1 | 103 | 103 | 1.03 | 2.49 | -13.1 | -40.1 | -30.5 | -54.9 | -24.1 | -23.9 | 0.216 | 14.3 | -0.427 | -1.21 | 0.304 | -15.7 | -17 | -39.6 | -29.1 | -78.3 | -50.4 | -91.5 | 1.47 | 2.4 | -32.4 | -81.3 | 36.5 | 82 |
| CN(c1ccccc1CNc1nc(Nc2ccc3c(c2)CC(=O)N3)ncc1C(F)(F)F)S(C)(=O)=O | 95.1 | 90.2 | -4.4 | -6.03 | -7.55 | -13.4 | -11 | -16.3 | -10.6 | -8.83 | 8.65 | 17.7 | -1.76 | -1.35 | -2.37 | -3.01 | 20.2 | 16.8 | 29.9 | 21.7 | 40.3 | 24.4 | 0.291 | 0.085 | 41.5 | -30.2 | 81.5 | 90.7 |
| COc1cc(SC)ccc1C(=O)N1CCC(Cc2ccccc2)CC1 [JX 401] | 9.25 | -2.23 | 3.2 | -0.475 | 1.22 | -0.09 | 0.862 | -0.188 | 15 | 16.2 | 0.036 | 0 | -1.82 | -1.65 | 4.17 | 3.66 | 2.94 | -4.03 | 10.9 | 7.53 | 13.8 | 14.6 | 0.294 | 1.59 | 19.2 | 24.9 | 4.01 | 2.67 |
| CCCCCCCCOc1ccc(-c2noc([C@@H]3CCCN3C(=N)N)n2)cc1C(F)(F)F | 8.34 | 102 | 0.514 | -52.9 | -72.1 | -92.8 | -86.2 | -93.7 | 114 | 138 | 15.4 | 6.63 | -1.83 | -2.7 | -6.84 | -99.7 | 19.2 | -91.9 | -94.9 | -100 | -99.9 | -99.9 | 46.2 | 70.7 | -41.8 | -89.2 | 35.1 | 82.8 |
| c1ccc2c(c1)SCc1c-2[nH]c2ccccc12 | 10.5 | 102 | -62 | -88.1 | -66.5 | -92.9 | -54.6 | -91.4 | 3.76 | -34.5 | 30.2 | 46 | 0.409 | 0.115 | -60.3 | -95.6 | -81.3 | -99.9 | -74.4 | -100 | -76 | -99.9 | 0.192 | 0.819 | -56.3 | -84.3 | 83.9 | 99.3 |
| C=CC[C@@H]1/C=C(\C)C[C@H](C)C[C@H](OC)[C@H]2O[C@@](O)(C(=O)C(=O)N3CCCC[C@H]3C(=O)O[C@H](/C(C)=C/[C@@H]3CC[C@@H](O)[C@H](OC)C3)[C@H](C)[C@@H](O)CC1=O)[C@H](C)C[C@@H]2OC [Tacrolimus] | -3.53 | 10.6 | 3.53 | 3.6 | -6.77 | -2.1 | -8.35 | -8.9 | -13.9 | -24 | 0 | 0.072 | -1.97 | -2.04 | 0.476 | -0.37 | 5.82 | 0.659 | -17.7 | -17.9 | -13.1 | -20.1 | 0.533 | 0.376 | -13.3 | -55.8 | -1.94 | 18.1 |
| O=c1c(-c2ccc(O)cc2)coc2cc(O)cc(O)c12 [Genistein] | 6.96 | -8.2 | -0.344 | -2.3 | -0.864 | 0.829 | -0.945 | -6.76 | 4.37 | 8.14 | 0.108 | 0.612 | -0.643 | -0.0998 | 9.31 | 12 | 5.98 | 2.04 | 6.38 | 0.504 | 9.21 | 2.89 | 1.12 | 1.51 | 20.2 | -0.318 | 17.4 | 22.9 |
| CC(C)[C@H]1c2ccc(F)cc2CC[C@@]1(CCN(C)CCCc1nc2ccccc2[nH]1)OC(=O)C1CC1 [NNC 55-0396 dihydrochloride] | 102 | 103 | 0.104 | -33.4 | -15 | -93.6 | -24.8 | -93 | 52.4 | 51.1 | 27.1 | 14.2 | -1.31 | -2.3 | 4.2 | -98.6 | 5.26 | -62.2 | 16.3 | -100 | 7.86 | -100 | 4.14 | 29.2 | -62 | -82.2 | 97.3 | 95.5 |
| COc1cc2ncn(-c3cc(OCc4ccccc4C(F)(F)F)c(C(N)=O)s3)c2cc1OC | 17.5 | 9.88 | -14.5 | -45.8 | -27.6 | -55.7 | -30.1 | -57.1 | 123 | 120 | 2.81 | 2.27 | -1.45 | -1.24 | -3.24 | -34.8 | 16.5 | -45.9 | 26.5 | -69.6 | 43.2 | -68.4 | 0.45 | -0.12 | 157 | 59.7 | 78.2 | 78.9 |
| COCC(=O)O[C@]1(CCN(C)CCCc2nc3ccccc3[nH]2)CCc2cc(F)ccc2[C@@H]1C(C)C [Mibefradil] | 14 | 103 | -1.6 | 0.488 | -3.96 | -8.13 | -7.2 | -14.3 | 18.3 | 38.1 | 5.66 | 43.7 | -1.48 | -2.28 | 3.94 | 6.24 | 1.95 | 0.528 | 16.4 | 25.7 | 27.4 | 23.4 | 0.323 | 1.49 | -13.7 | -48.1 | 35.6 | 97.9 |
| CNc1ccc2oc(C[C@H]3O[C@@]4(CC[C@H]3C)O[C@H]([C@H](C)C(=O)c3ccc[nH]3)[C@H](C)C[C@H]4C)nc2c1C(=O)O | 99.9 | 102 | -57.2 | -78.3 | -89.9 | -93.5 | -92 | -94.3 | 106 | 106 | 1.33 | 14.5 | -2.53 | -2.38 | -89.8 | -99.9 | -82.5 | -97.5 | -99.9 | -100 | -99.9 | -100 | 45.3 | 46.5 | -68.5 | -83.7 | 79.6 | 94.7 |
| N=C(N)Nc1nc(-c2ccc(Cl)cc2)cs1 [n-[4-(4-Chlorophenyl)-1,3-thiazol-2-yl]guanidine] | 3.6 | -2.59 | 0.678 | 2.58 | 1.9 | -3.38 | -0.743 | 0.262 | 15.2 | 21.5 | 0 | 0.108 | -0.638 | -0.59 | 10.1 | 17 | 9.51 | 8.48 | 24 | 14.5 | 19.1 | 31 | 1.42 | 1.64 | 17.5 | 17.3 | 9.82 | 14.3 |
